Laboratory results as given in patent US12263248B2, “Compounds and compositions for intracellular delivery of therapeutic agents” (ModernaTX, Inc., priority 2018, dated 2025).

Tests used:
[1] = Encapsulation efficiency of RNA (QUANT-IT RIBOGREEN RNA assay); assay type: physicochemical; details: for % Encapsulation: lipid nanoparticle, ±SD within one assay run (Table 37)
Method in brief: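 RiboGreen fluorescence (ex ~480, em ~520 nm) compared between intact samples and Triton X-100-lysed samples after 15 min at 37 °C in TE buffer, pH 7.5. Percent free RNA is the blank-corrected intact/disrupted ratio.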

luciferase (Luc) mRNA = assay: Luc expression (total flux) after intramuscular administration; assay type: in vivo, mice; details: for i.m. Lipid/MC3 0.01 mpk, Luc, 6 h: Table 3B; for Total flux (p/s) 0.01 mpk Dose: Table 5B; for Total flux (p/s) 0.01 mpk Dose / Total flux, 0.001 mpk Dose / Total flux, 0.01 mpk Dose: 6 hours after intramuscular administration; for Novel lipid/MC3 expression ratio, 6 hr. time point, i.m. Luc / AUC (p/s * h) / Lipid/MC3 AUC: intramuscular; for Novel lipid/MC3 expression ratio, 6 hr. time point, i.m. Luc: relative to MC3 formulation; for AUC (p/s * h) / Lipid/MC3 AUC: Table 3H, Luc; for Total flux, 0.001 mpk Dose / Total flux, 0.01 mpk Dose: Luc mRNA and H10 mRNA
Method in brief: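 Total-flux luciferase signal in mice after one intramuscular injection. Nanoparticle formulations contained modified Luc mRNA, either alone or co-dosed with H10 mRNA (e.g., 0.0005 or 0.005 mpk of each), giving 0.001 or 0.01 mpk.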

[2] = Apparent (surface) pKa of the LNP formulation (TNS assay); assay type: physicochemical; details: for Apparent pKa: Table 3G
Method in brief: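 Fluorescence of TNS probe added to LNP samples (mRNA 0.04 mg/mL) was read across 21 buffers of pH about 3-12, triplicate per pH. The inflection point of the sigmoidal fluorescence-vs-pH curve, […], gives apparent pKa; method validated in 1× PBS and Tris/sucrose buffer.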

IL-6, IP-10 = assay: Cytokine induction in mice upon intravenous administration; assay type: in vivo; design: Cytokine induction IL-6 / Cytokine induction IP-10: unit not given here; details: intravenous, 0.5 mpk, 6 hours
Method in brief: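 IL-6 and IP-10 concentrations determined 6 hours after a single intravenous 0.5 mpk dose of lipid nanoparticle formulation in mice, with MC3 and PBS as comparators.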

[3] = Table 1B, formulated with hEPO mRNA
[4] = Table 1E, compositions for subcutaneous administration
[5] = Table 1C, compositions for subcutaneous administration
[6] = lipid nanoparticle, ±SD within one assay run (Table 37)
[7] = Table 1D, for subcutaneous administration, # formulated with hEPO mRNA

Row | SMILES | EE (%) ([1]; Table 1A) | EE (%) [1, 3] [%] | % EE [1, 4] [%] | Total flux (p/s) 0.01 mpk Dose (luciferase (Luc) mRNA; 0.01 mpk) [p/s] | Novel lipid/MC3 expression ratio, 6 hr. time point, i.m. Luc (luciferase (Luc) mRNA) | pKa ([2]; Table 1A) | % EE [1, 5] [%] | AUC (p/s * h) (luciferase (Luc) mRNA) | Lipid/MC3 AUC (luciferase (Luc) mRNA) | also measured
1 | CCCCCCCCCOC(=O)CCCCCCCN(CCCCCCCC(=O)OC(CCCCCCCC)CCCCCCCC)CCCNS(C)(=O)=O [Compound 109, Heptadecan-9-yl 8-((3-(methylsulfonamido)propyl)(8-(nonyloxy)-8-oxooctyl)amino)octanoate] | 98.6 | 98.29 | 98 | 1.18E+08 | 3.65 | 6.78 |  |  |  | i.m. Lipid/MC3 0.01 mpk, Luc, 6 h (luciferase (Luc) mRNA; 0.01 mpk): 3.6
2 | CCCCCCCCC(C)OC(=O)CCCCCN(CCO)CCCCCCCC(=O)OC(CCCCCCCC)CCCCCCCC (centres unmarked) [Compound 122, Heptadecan-9-yl 8-((6-(decan-2-yloxy)-6-oxohexyl)(2-hydroxyethyl)amino)octanoate] | 98.2 | 96.27 |  | 9.19E+07 | 2.84 | 6.83 | 94.8 |  |  | Apparent pKa [2]: 6.83
3 | CCCCCCCCC(CC)OC(=O)CCCN(CCO)CCCCCCCC(=O)OC(CCCCCCCC)CCCCCCCC (centres unmarked) [Compound 72, Heptadecan-9-yl 8-((2-hydroxyethyl)(4-oxo-4-(undecan-3-yloxy)butyl)amino)octanoate] | 94.69 |  |  |  | 1.03 | 6.29 | 94.9 | 6.48E+08 | 1.10 | 
4 | CCCCC/C=C\C/C=C\CCCCCCCCN(CCO)CCCCCCCC(=O)OC(CCCCCCCC)CCCCCCCC [Compound 6, Heptadecan-9-yl 8-((2-hydroxyethyl)((9Z,12Z)-octadeca-9,12-dien-1-yl)amino)octanoate] | 97.60 |  |  |  |  | 6.32 |  |  |  | % Encapsulation [1]: 97.6 ± 1.2%; EE ([1]; lipid:DSPC:Chol:PEG-DMG (50:10:38.5:1.5), hEPO mRNA): 97.84%; Cytokine induction IL-6 (IL-6, IP-10): 136.18; Cytokine induction IP-10 (IL-6, IP-10): 316.01; pKa [2, 6]: 6.32 ± 0.05
5 | CCCCCCCCC(CC)OC(=O)CCCCCCCN(CCO)CCCCCCCC(=O)OC(CCCCCCCC)CCCCCCCC (centres unmarked) [Compound 49, heptadecan-9-yl 8-((2-hydroxyethyl)(8-oxo-8-(undecan-3-yloxy)octyl)amino)octanoate] | 89.52 |  |  |  | 12.99 | 6.52 |  | 7.54E+09 | 12.82 | % EE [1, 7]: 96.2%
6 | CCCCCCCCC(CCC)OC(=O)CCCCCCCN(CCO)CCCCCCCC(=O)OC(CCCCCCCC)CCCCCCCC (centres unmarked) [Compound 50, dodecan-4-yl 8-((8-(heptadecan-9-yloxy)-8-oxooctyl)(2-hydroxyethyl)amino)octanoate] | 97.33 |  |  |  |  | 6.42 |  |  |  | Total flux, 0.001 mpk Dose (luciferase (Luc) mRNA): 6.56E+05 p/s; Total flux, 0.01 mpk Dose (luciferase (Luc) mRNA; 0.01 mpk): 1.13E+07 p/s
7 | CCCCCCCCC(C)OC(=O)CCCCCCCN(CCO)CCCCCCCC(=O)OC(CCCCCCCC)CCCCCCCC (centres unmarked) [Compound 48, decan-2-yl 8-((8-(heptadecan-9-yloxy)-8-oxooctyl)(2-hydroxyethyl)amino)octanoate] | 96.55 |  |  |  |  | 6.68 |  |  |  | % EE [1, 7]: 96.2%; EE ([1]; nanoparticle composition with hEPO mRNA (Table 30)): 91.92%; Total flux, 0.001 mpk Dose (luciferase (Luc) mRNA): 4.69E+05 p/s; Total flux, 0.01 mpk Dose (luciferase (Luc) mRNA; 0.01 mpk): 8.78E+06 p/s
8 | CCCCCCCCCOC(=O)CCCCCCCN(CCCCCCCC(=O)OC(CCCCCCCC)CCCCCCCC)CCCNC(=S)NC [Compound 113, Heptadecan-9-yl 8-((3-(3-methylthioureido)propyl)(8-(nonyloxy)-8-oxooctyl)amino)octanoate] | 96.92 |  |  |  | 1.58 | 6.93 | 99.6 | 1.01E+09 | 1.71 | 
9 | CCCCCCCCCOC(=O)CCCCCCCN(CCCCCCCC(=O)OC(CCCCCCCC)CCCCCCCC)CCCNC(C)=O [Compound 108, Heptadecan-9-yl 8-((3-acetamidopropyl)(8-(nonyloxy)-8-oxooctyl)amino)octanoate] | 96 | 95.38 | 96 | 4.60E+08 | 14.2 | 7.17 |  |  |  | Luc expression upon intramuscular administration (luciferase (Luc) mRNA; 0.01 mpk, in words): highest expression; i.m. Lipid/MC3 0.01 mpk, Luc, 6 h (luciferase (Luc) mRNA; 0.01 mpk): 14.2; flux measured at 6 h relative to the MC3 formulation (luciferase (Luc) mRNA; intramuscular administration (i.m.), in words): fourteen
10 | CCCC/C=C\CCC(CC/C=C\CCCC)OC(=O)CCCCCCCN(CCO)CCCCCC(=O)OCCCCCCCCCCC [Compound 61, (5Z,12Z)-heptadeca-5,12-dien-9-yl 8-((2-hydroxyethyl)(6-oxo-6-(undecyloxy)hexyl)amino)octanoate] | 97.40 |  | 96 |  | 3.51 | 6.70 |  | 2.30E+09 | 3.91 | 
11 | CCCCCCCCC(CCCCCCCC)OC(=O)CCCCCCCN(CCO)CCCCCC(=O)OC(CCCCCCCC)C1CC1 (centres unmarked) [Compound 128, Heptadecan-9-yl 8-((6-((1-cyclopropylnonyl)oxy)-6-oxohexyl)(2-hydroxyethyl)amino)octanoate] | 92.45 |  | 94 |  |  | 6.56 |  | 8.59E+08 | 1.46 | 
12 | CCCCCCCCC(CC)OC(=O)CCCCCN(CCO)CCCCCCCC(=O)OC(CCCCCCCC)CCCCCCCC (centres unmarked) [Compound 75, Heptadecan-9-yl 8-((2-hydroxyethyl)(6-oxo-6-(undecan-3-yloxy)hexyl)amino)octanoate] | 92.3 |  |  |  | 1.22 | 6.67 | 94.9 | 1.29E+09 | 2.20 | 
13 | CCCCCCCCCOC(=O)CCCCCCCN(CCO)CCCCCCCCCC(=O)OC(CCCCCC)CCCCCC [Compound 147, Tridecan-7-yl 10-((2-hydroxyethyl)(8-(nonyloxy)-8-oxooctyl)amino)decanoate] | 88.31 | 91.0 |  |  |  | 6.66 |  |  |  | 
14 | CCCCCCCCCOC(=O)CCCCCCCN(CCCCCCCC(=O)OC(CCCCCCCC)CCCCCCCC)CCCNC(=O)N(C)C [Compound 110, Heptadecan-9-yl 8-((3-(3,3-dimethylureido)propyl)(8-(nonyloxy)-8-oxooctyl)amino)octanoate] | 91.9 | 92.39 |  | 1.21E+08 | 3.74 | 8.03 | 91.9 |  |  | Apparent pKa [2]: 8.03
15 | CCCC/C=C\CCC(CC/C=C\CCCC)OC(=O)CCCCCCCN(CCO)CCCCCCCC(=O)OCCCCCCCCC [Compound 60, (5Z,12Z)-Heptadeca-5,12-dien-9-yl 8-((2-hydroxyethyl)(8-(nonyloxy)-8-oxooctyl)amino)octanoate] | 97.6 | 95.20 | 88 | 9.48E+07 | 2.93 | 6.73 |  |  |  | % EE [1, 7]: 93.0%
16 | CCCCC/C=C\C/C=C\CCCCCCCCN(CCO)CCCCCCCC(=O)OCCCCCCCCC [Compound 136, Nonyl 8-((2-hydroxyethyl)((9Z,12Z)-octadeca-9,12-dien-1-yl)amino)octanoate] | 90.9 |  |  |  |  | 6.95 |  |  |  | % Encapsulation [1]: 90.9 ± 0.9%; Cytokine induction IL-6 (IL-6, IP-10): 28.69; Cytokine induction IP-10 (IL-6, IP-10): 887.91; pKa [2, 6]: 6.95 ± 0.13
17 | CCCCCCCCCOC(=O)CCCCCCCN(CCCCCCCC(=O)OC(CCCCCCCC)CCCCCCCC)CCCNC(=S)N(C)C [Compound 111, Heptadecan-9-yl 8-((3-(3,3-dimethylthioureido)propyl)(8-(nonyloxy)-8-oxooctyl)amino)octanoate] | 76.8 | 91.23 | 88 | 1.58E+08 | 4.88 | 7.13 |  |  |  | % EE [1, 7]: 90.9%; i.m. Lipid/MC3 0.01 mpk, Luc, 6 h (luciferase (Luc) mRNA; 0.01 mpk): 4.9
18 | CCCCCCCCCOC(=O)CCCCCCCN(CCCCCCCC(=O)OC(CCCCCCCC)CCCCCCCC)CCCNC(=O)NC [Compound 112, Heptadecan-9-yl 8-((3-(3-methylureido)propyl)(8-(nonyloxy)-8-oxooctyl)amino)octanoate] | 99.0 | 96.40 |  | 9.47E+07 | 2.93 | 7.78 | 99.0 |  |  | Apparent pKa [2]: 7.78
